Values quoted from earlier work in patent publication US7202233B2, “Alprazolam inclusion complexes and pharmaceutical compositions thereof” (Farmarc Nederland BV, priority 2000, dated 2007).

Assays:
[1] = above pH 6; FIG. 1 (Cho et al. 1983)
[2] = sublingual use of commercially available oral tablet dosage forms
[3] = tablet formulation, conventional orogastric administration
[4] = 20% solution of 2-hydroxypropyl-beta-cyclodextrin

In the case of `Cc1nnc2n1-c1ccc(Cl)cc1C(c1ccccc1)=NC2` [alprazolam, 8-chloro-1-methyl-6-phenyl-4H-[1,2,4]triazolo[4,3a][1,4]benzodiazepine], the “presence of ring-open form as a function of pH” value [1] is given as “no ring-open alprazolam above pH 6”, the “speed of onset, sublingual versus conventional orogastric administration” value [2] is given as “no significant benefit” and the “time of maximum plasma levels post-dose” value [3] is given as 0.7 to 1.8 h. The solubility enhancement [4] was 16 fold.
